Data published in patent publication US20170290774A1, “NEUROKININ-1 RECEPTOR ANTAGONIST COMPOSITION FOR TREATMENT OF DISEASES AND CONDITIONS OF THE RESPIRATORY TRACT” (PLUS VITECH, S.L., priority 2014, published 2017).

System: MMP-14
Test: Immunohistochemistry of MMP-14 in respiratory tract tissue of sodium hypochlorite aerosol-treated rabbits
Format: in vivo, New Zealand albino rabbits
Excerpt: It is known that the factors TGF-α, TGF-β 1, TGF-β 2, TGF-β 3, SPARC, MMP-3; MMP-7, MMP-9, MMP-11, MMP-13 and MMP-14, TGF-β, NF-kB, EGF, MMP-9, VEGF and TNF-α which are produced by lung cells (pneumocytes, fibroblasts and vascular endothelial cells) and inflammatory cells (macrophages, lymphocytes and polymorphonuclear leukocytes) are involved in the pathophysiology and development of said respiratory tract diseases. […] Herein, 27 New Zealand albino rabbits (New Zealand White Rabbit) with an initial average weight about 3 kg were used in this example. All subjects were administered an aerosol of a solution consisting of a mixture of water and sodium hypochlorite (35 g sodium hypochlorite per liter of water) at a rate of 5 mL of said solution by inhalation three times a day for 7 days (days 1 to 7 of experimentation). Subsequently, from days 3 to 7, a group of 3 rabbits (Group 1) was administered an oral dose of 10 mg/kg body weight per day, another group of 3 rabbits (Group 2) was administered an oral dose of 40 mg/kg body weight per day, a third group (Group 3) was administered an oral dose of 80 mg/kg body weight per day and a fourth group (Group 4) was administered an oral dose of 100 mg/kg body weight per day. […] This mixture was administered as an aerosol by inhalation, also from days 3 to 7, to a group of 3 rabbits (group 5) at a dose of 0.05 mg/kg body weight per day, to another group of three rabbits (Group 6) at a dose of 0.1 mg/kg body weight per day, to another group of three rabbits (Group 7) at a dose of 0.2 mg/kg body weight per day and to another group of three rabbits (Group 8) at a dose of 0.4 mg/kg body weight per day. A placebo consisting only of olive oil was administered from days 3 to 7 to a control group of 3 rabbits (placebo group). In parallel, 3 rabbits were kept under identical conditions but were not administered any treatment nor the aforementioned sodium hypochlorite solution (control group). […] On day 7 of the experiment all animals were euthanized and necropsied. […] Samples were taken at the peripheral level of the lung parenchyma, just below the pleural surface. Tissue samples were also taken from the nasal cavity, pharynx, larynx and bronchi. Immunohistochemistry studies were performed for all samples to evaluate the levels of the markers TGF-α, TGF-β 1, TGF-β 2, TGF-β 3 SPARC, MMP-3; MMP-7, MMP-9, MMP-11, MMP-14, TGF-β, TNF-α and VEGF. In said immunohistochemistry studies, a sample of each sample was dehydrated by treatment with increasing concentrations of ethanol and finally xylene. Subsequently said dried samples were embedded in paraffin, thus creating a block. Said paraffin blocks were cut on a microtome to a thickness of 5 μm, and the resulting sections (slices) were placed on slides suitable for conducting immunohistochemistry techniques. Subsequently, the sections were deparaffinised by immersion in xylene and then rehydrated through immersion in a series of solutions containing decreasing concentrations of ethanol and, finally, water. […] The samples were then allowed to cool to room temperature over 10 minutes. Endogenous peroxidase activity was blocked by treatment with 3% hydrogen peroxide over 30 min at room temperature. […] In order to verify the expression of NK1 receptors, the cell samples were incubated in the presence of anti-NK1 antibodies ([…], Sigma-Aldrich) diluted 1:1000 at 4° C. overnight. After this time they were washed in 0.05M Tris buffer at room temperature. Subsequently, Envision System-HRP (Dako) reagents were added for 30 min at room temperature. Once this time had expired, the samples were again washed with 0.05 M Tris buffer, and immunoreactivity was visualized by light microscopy with a chromogenic solution with 3,3'-diaminobenzidine (DAB+; Dako, USA). In order to differentiate the cell nuclei, these were lightly stained with haematoxylin. Samples that were not incubated with the primary antibody, but wherein this was replaced by a non-immune serum were used as negative controls. […]

Q: Which results are given for `C[C@@H](OC1OCCN(Cc2nc(=O)[nH][nH]2)C1c1ccc(F)cc1)c1cc(C(F)(F)F)cc(C(F)(F)F)c1` (stereo in doubt) [Aprepitant, 5-([(2R,3S)-2-((R)-1-[3,5-bis(trifluoromethyl)phenyl]ethoxy)-3-(4-fluorophenyl)morpholino]methyl)-1H-1,2,4-triazol-3(2H)-one]?
A: Percent increase in MMP-14 with respect to the control group (bronchial tissue, Group 1, oral 10 mg/kg per day): 567.32%; Percent increase in MMP-14 with respect to the control group (bronchial tissue, Group 2, oral 40 mg/kg per day): 434.45%; Percent increase in MMP-14 with respect to the control group (bronchial tissue, Group 3, oral 80 mg/kg per day): 325.56%; Percent increase in MMP-14 with respect to the control group (bronchial tissue, Group 4, oral 100 mg/kg per day): 312.56%; % Med G5/C: percent increase in marker MMP-14 with respect to the control group (bronchial tissue, Group 5): 458.45%; % Med G6/C: percent increase in marker MMP-14 with respect to the control group (bronchial tissue, Group 6): 342.32%; % Med G7/C: percent increase in marker MMP-14 with respect to the control group (bronchial tissue, Group 7): 246.47%; % Med G8/C: percent increase in marker MMP-14 with respect to the control group (bronchial tissue, Group 8): 164.63%; Percent increase in MMP-14 with respect to the control group (laryngeal tissue, Group 1, oral 10 mg/kg per day): 678.45%; Percent increase in MMP-14 with respect to the control group (laryngeal tissue, Group 2, oral 40 mg/kg per day): 567.34%; Percent increase in MMP-14 with respect to the control group (laryngeal tissue, Group 3, oral 80 mg/kg per day): 459.43%; Percent increase in MMP-14 with respect to the control group (laryngeal tissue, Group 4, oral 100 mg/kg per day): 387.34%; Percent increase in MMP-14 with respect to the control group (laryngeal tissue, Group 5, inhalation 0.05 mg/kg per day): 639.34%; Percent increase in MMP-14 with respect to the control group (laryngeal tissue, Group 6, inhalation 0.1 mg/kg per day): 543.12%; Percent increase in MMP-14 with respect to the control group (laryngeal tissue, Group 7, inhalation 0.2 mg/kg per day): 342.23%; Percent increase in MMP-14 with respect to the control group (laryngeal tissue, Group 8, inhalation 0.4 mg/kg per day): 201.28%; Percent increase in MMP-14 with respect to the control group (lung tissue, Group 1, oral 10 mg/kg per day): 683.47%; Percent increase in MMP-14 with respect to the control group (lung tissue, Group 2, oral 40 mg/kg per day): 569.37%; Percent increase in MMP-14 with respect to the control group (lung tissue, Group 3, oral 80 mg/kg per day): 441.85%; Percent increase in MMP-14 with respect to the control group (lung tissue, Group 4, oral 100 mg/kg per day): 354.84%; Percent increase in MMP-14 with respect to the control group (lung tissue, Group 5, inhalation 0.05 mg/kg per day): 769.70%; Percent increase in MMP-14 with respect to the control group (lung tissue, Group 6, inhalation 0.1 mg/kg per day): 323.25%; Percent increase in MMP-14 with respect to the control group (lung tissue, Group 7, inhalation 0.2 mg/kg per day): 184.50%; Percent increase in MMP-14 with respect to the control group (lung tissue, Group 8, inhalation 0.4 mg/kg per day): 153.36%; Percent increase in MMP-14 with respect to the control group (nasal cavity tissue, Group 1, oral 10 mg/kg per day): 1,016.51%; Percent increase in MMP-14 with respect to the control group (nasal cavity tissue, Group 2, oral 40 mg/kg per day): 680.45%; Percent increase in MMP-14 with respect to the control group (nasal cavity tissue, Group 3, oral 80 mg/kg per day): 412.64%; Percent increase in MMP-14 with respect to the control group (nasal cavity tissue, Group 4, oral 100 mg/kg per day): 317.68%; Percent increase in MMP-14 with respect to the control group (nasal cavity tissue, Group 5, inhalation 0.05 mg/kg per day): 1,190.13%; Percent increase in MMP-14 with respect to the control group (nasal cavity tissue, Group 6, inhalation 0.1 mg/kg per day): 510.81%; Percent increase in MMP-14 with respect to the control group (nasal cavity tissue, Group 7, inhalation 0.2 mg/kg per day): 206.80%; Percent increase in MMP-14 with respect to the control group (nasal cavity tissue, Group 8, inhalation 0.4 mg/kg per day): 149.00%; Percent increase in MMP-14 with respect to the control group (pharyngeal tissue, Group 1, oral 10 mg/kg per day): 1,148.43%; Percent increase in MMP-14 with respect to the control group (pharyngeal tissue, Group 2, oral 40 mg/kg per day): 980.64%; Percent increase in MMP-14 with respect to the control group (pharyngeal tissue, Group 3, oral 80 mg/kg per day): 762.45%; Percent increase in MMP-14 with respect to the control group (pharyngeal tissue, Group 4, oral 100 mg/kg per day): 560.45%; Percent increase in MMP-14 with respect to the control group (pharyngeal tissue, Group 5, inhalation 0.05 mg/kg per day): 1,091.23%; Percent increase in MMP-14 with respect to the control group (pharyngeal tissue, Group 6, inhalation 0.1 mg/kg per day): 709.21%; Percent increase in MMP-14 with respect to the control group (pharyngeal tissue, Group 7, inhalation 0.2 mg/kg per day): 245.45%; Percent increase in MMP-14 with respect to the control group (pharyngeal tissue, Group 8, inhalation 0.4 mg/kg per day): 135.00%
